Consider 39 compounds from ChEMBL document CHEMBL3352376, “Amine substitution of quinazolinones leads to selective nanomolar AChE inhibitors with 'inverted' binding mode” (Bioorg Med Chem, 2014).

Assay [1] concerns the target Cholinesterase (Equus caballus, UniProt P81908).
Assay [2] has as its target Acetylcholinesterase (Electrophorus electricus, UniProt O42275).
For assay [3], the target named is T1, Acetylcholinesterase (Homo sapiens, UniProt P22303).
The target in assay [4] is Cholinesterase (Equus caballus) (UniProt P81908). In words: Inhibition of equine serum BChE at 50 uM.
Cholinesterase (Equus caballus), sequence (P81908 whole entry): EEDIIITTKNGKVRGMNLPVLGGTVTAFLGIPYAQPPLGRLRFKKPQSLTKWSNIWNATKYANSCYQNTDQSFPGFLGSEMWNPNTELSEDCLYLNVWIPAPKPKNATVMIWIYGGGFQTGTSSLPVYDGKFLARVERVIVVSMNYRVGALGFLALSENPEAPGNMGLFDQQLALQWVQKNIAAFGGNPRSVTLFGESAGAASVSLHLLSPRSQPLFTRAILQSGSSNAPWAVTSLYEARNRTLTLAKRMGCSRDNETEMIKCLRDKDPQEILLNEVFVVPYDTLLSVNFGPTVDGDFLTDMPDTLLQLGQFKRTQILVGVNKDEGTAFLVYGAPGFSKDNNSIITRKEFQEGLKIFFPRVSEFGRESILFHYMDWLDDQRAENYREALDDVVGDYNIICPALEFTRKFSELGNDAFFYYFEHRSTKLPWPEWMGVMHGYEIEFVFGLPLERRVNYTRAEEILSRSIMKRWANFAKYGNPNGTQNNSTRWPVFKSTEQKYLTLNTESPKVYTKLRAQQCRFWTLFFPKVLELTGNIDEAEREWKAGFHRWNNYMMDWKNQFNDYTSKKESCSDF
Assay [5] deals with Acetylcholinesterase (Electrophorus electricus) (UniProt O42275). In words: Inhibition of electric eel AChE at 50 uM.
Acetylcholinesterase (Electrophorus electricus), sequence (O42275 24-633 limits assumed): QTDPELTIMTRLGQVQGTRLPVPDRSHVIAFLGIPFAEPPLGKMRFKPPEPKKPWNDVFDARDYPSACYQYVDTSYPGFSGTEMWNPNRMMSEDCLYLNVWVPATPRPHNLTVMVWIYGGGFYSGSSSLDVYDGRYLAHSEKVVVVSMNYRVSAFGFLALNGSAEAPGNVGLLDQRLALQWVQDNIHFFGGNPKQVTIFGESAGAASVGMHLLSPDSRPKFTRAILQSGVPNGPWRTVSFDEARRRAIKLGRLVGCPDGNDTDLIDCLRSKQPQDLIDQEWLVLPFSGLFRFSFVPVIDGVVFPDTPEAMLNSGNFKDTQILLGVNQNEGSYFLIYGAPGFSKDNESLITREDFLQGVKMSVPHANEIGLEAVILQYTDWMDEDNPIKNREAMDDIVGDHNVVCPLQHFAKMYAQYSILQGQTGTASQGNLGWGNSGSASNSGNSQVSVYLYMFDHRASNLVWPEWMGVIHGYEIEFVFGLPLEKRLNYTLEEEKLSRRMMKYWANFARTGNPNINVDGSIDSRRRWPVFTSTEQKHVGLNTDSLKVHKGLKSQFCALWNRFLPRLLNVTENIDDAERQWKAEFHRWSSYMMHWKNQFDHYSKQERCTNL
Assay [6] deals with T1, Acetylcholinesterase. Description: Inhibition of human AChE at 100 uM.
The target of assay [7] is Histamine H3 receptor (Homo sapiens, UniProt Q9Y5N1). In words: Inhibition of human H3 receptor.
Histamine H3 receptor, sequence (Q9Y5N1 whole entry): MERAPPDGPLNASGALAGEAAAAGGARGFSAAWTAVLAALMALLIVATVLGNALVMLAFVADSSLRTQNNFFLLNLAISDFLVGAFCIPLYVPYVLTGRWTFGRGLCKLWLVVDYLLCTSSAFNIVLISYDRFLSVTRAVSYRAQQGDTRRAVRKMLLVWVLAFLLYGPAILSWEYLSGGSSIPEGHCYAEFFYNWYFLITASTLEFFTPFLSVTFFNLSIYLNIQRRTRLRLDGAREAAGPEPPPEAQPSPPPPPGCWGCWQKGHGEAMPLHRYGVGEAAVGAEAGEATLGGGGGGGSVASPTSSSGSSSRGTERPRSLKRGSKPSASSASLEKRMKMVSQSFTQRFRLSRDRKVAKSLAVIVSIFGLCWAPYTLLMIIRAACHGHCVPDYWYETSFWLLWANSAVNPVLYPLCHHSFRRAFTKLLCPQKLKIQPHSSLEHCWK

The IC50 is the concentration needed to halve the response being measured. A high value points to a need for much substance. One may read the inhibition as the relative decrease from the control value, in per cent. By Ki is commonly meant the dissociation constant of the complex between target and ligand, obtained from inhibition or displacement. Lower therefore signals tighter binding.

Values joined by “and” are separate entries in the source; they are usually repeats but may differ in a detail not shown here. Identical values can stand only once. Active and inactive are the calls of the source. No cut-off for these calls is given here.

Acetylcholinesterase (Electrophorus electricus, UniProt O42275), sequence (O42275 whole entry): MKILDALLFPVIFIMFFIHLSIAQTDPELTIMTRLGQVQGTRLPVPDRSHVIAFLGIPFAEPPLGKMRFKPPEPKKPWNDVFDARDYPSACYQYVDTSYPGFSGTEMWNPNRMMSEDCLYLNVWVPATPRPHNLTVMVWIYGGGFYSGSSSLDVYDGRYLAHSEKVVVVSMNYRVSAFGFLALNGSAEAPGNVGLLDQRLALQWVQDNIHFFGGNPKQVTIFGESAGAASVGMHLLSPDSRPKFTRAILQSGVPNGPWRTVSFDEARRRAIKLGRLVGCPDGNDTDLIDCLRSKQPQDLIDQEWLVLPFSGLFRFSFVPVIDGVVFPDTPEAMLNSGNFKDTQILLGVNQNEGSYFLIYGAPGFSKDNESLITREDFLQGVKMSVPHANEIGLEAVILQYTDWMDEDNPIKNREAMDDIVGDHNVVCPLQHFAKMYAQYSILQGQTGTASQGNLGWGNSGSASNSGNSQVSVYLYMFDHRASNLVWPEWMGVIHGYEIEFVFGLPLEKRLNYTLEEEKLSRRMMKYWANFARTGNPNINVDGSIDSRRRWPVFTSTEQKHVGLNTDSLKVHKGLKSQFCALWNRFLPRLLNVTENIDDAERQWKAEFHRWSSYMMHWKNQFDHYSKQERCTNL
T1 sequence (P22303 whole entry): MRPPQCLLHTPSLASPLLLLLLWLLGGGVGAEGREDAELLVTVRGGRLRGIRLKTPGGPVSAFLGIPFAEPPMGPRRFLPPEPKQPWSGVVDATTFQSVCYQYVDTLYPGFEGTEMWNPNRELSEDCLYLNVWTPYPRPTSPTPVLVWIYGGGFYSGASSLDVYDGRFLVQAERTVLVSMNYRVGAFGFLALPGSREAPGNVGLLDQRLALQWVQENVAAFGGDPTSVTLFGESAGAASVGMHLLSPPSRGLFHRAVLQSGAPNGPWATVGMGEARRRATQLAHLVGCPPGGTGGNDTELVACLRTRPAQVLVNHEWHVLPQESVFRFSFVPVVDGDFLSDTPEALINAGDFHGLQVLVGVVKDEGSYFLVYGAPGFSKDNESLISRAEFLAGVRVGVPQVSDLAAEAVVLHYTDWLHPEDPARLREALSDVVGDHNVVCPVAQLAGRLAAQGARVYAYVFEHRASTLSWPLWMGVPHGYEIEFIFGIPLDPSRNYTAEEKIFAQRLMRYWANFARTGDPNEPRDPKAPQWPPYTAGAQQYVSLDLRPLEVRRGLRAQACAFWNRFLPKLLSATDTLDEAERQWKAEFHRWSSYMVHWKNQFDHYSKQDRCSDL
Cholinesterase, sequence (P81908 whole entry): as the sequence (P81908 whole entry) above

On to `CCN(CC)CCCOc1ccc2nc3n(c(=O)c2c1)CCCC3`, for which the IC50 was 9140 nM in assay [1], 43 nM in assay [2] and 1500 nM in assay [3].
For `CCN(CC)CCCOc1ccc2nc3n(c(=O)c2c1)CCCCC3` the same measures were 10800 nM, 50.6 nM and 12100 nM.
Consider `O=c1c2cc(OCCCN3CCCC3)ccc2nc2n1Cc1ccccc1-2`, for which the values for the IC50 in assay [1] and in assay [2] were 2400 nM and 16.2 nM, respectively.
As to `O=c1c2cc(OCCCN3CCCCCC3)ccc2nc2n1CCc1ccccc1-2`, the IC50 in assay [1] is 584 nM; in assay [2], 13 nM.
Consider `O=c1c2cc(OCCCC3CCCCC3)ccc2nc2n1Cc1ccccc1-2`, for which, in assay [4], the inhibition entry is “inactive”. Further, the inhibition in assay [5] was 34%; in assay [6] it was 35%.
`O=c1c2cc(OCCCN3CCCC3)ccc2nc2n1CCc1ccccc1-2` displayed an IC50 in assay [2] of 91.1 nM.
In the case of `O=c1c2cc(OCCCN3CCCCC3)ccc2nc2n1CCc1ccccc1-2`, the IC50 is 955 nM in assay [1]; 5.5 nM in assay [2]; 217 nM and 216 nM in assay [3].
Take `O=c1c2cc(OCCCN3CCCCC3)ccc2nc2n1Cc1ccccc1-2`: the half-inhibitory concentration (IC50) was 6.9 nM in assay [2]; 143 nM and 142 nM in assay [3].
Regarding `O=c1c2cc(OCCCn3ccnc3)ccc2nc2n1CCC2`, the IC50 in assay [1] came out at 14600 nM; in assay [2] it was 1900 nM.
In the case of `O=c1c2cc(OCCCN3CCCCC3)ccc2nc2n1CCCCC2`, the IC50 in assay [1] came out at 12700 nM; in assay [2] it was 43 nM; in assay [3], 820 nM.
On to `O=c1c2cc(OCCCn3ccnc3)ccc2nc2n1Cc1ccccc1-2`, for which the IC50 turned out to be 9110 nM in assay [1] and 454 nM in assay [2].
For the compound `CCN(CC)CCCOc1ccc2nc3n(c(=O)c2c1)CCC3`, the IC50 in assay [1] stood at 829 nM; in assay [2], 101 nM; in assay [3], 1200 nM.
Consider `O=c1c2cc(OCCCN3CCc4ccccc4C3)ccc2nc2n1CCC2`, for which the results for the IC50 in assay [1] and in assay [2] were 776 nM and 868 nM, respectively.
For `O=c1c2cc(OCCCN3CCc4ccccc4C3)ccc2nc2n1CCc1ccccc1-2`, in that order: 1830 nM and 625 nM.
For `O=c1c2cc(OCCCN3CCCCCC3)ccc2nc2n1CCCCC2`, in that order: 1800 nM and 39.2 nM.
Regarding `O=c1c2cc(OCCCN3CCCC3)ccc2nc2n1CCCc1ccccc1-2`, the IC50 in assay [1] is 3610 nM; in assay [2], 529 nM.
For `O=c1c2cc(OCCCN3CCCC3)ccc2nc2n1CCCC2` the same measures were 16100 nM and 210 nM.
In turn, `c1cc2c(cc1OCCCN1CCCCC1)CN1CCCC1=N2` registered an inhibition constant (Ki) in assay [7] of 76.2 nM. In addition, the IC50 in assay [2] was 66.5 nM; in assay [3] it was 33.9 nM.
Take `O=c1c2cc(OCCCN3CCCCCC3)ccc2nc2n1Cc1ccccc1-2`: the results for the IC50 in assay [1] and in assay [2] were 1870 nM and 5 nM, respectively.
For `O=c1c2cc(OCCCN3CCCCCC3)ccc2nc2n1CCC2`, in that order: 5220 nM and 50.2 nM.
For the compound `CCN(CC)CCCOc1ccc2nc3n(c(=O)c2c1)CCc1ccccc1-3`, the IC50 in assay [1] stood at 2160 nM; in assay [2] it was 47.5 nM; in assay [3], 669 nM.
Regarding `O=c1c2cc(OCCCn3ccnc3)ccc2nc2n1CCc1ccccc1-2`, the IC50 turned out to be 8680 nM in assay [1] and 2440 nM in assay [2].
Turning to `O=c1c2cc(OCCCN3CCCCCC3)ccc2nc2n1CCCC2`, the IC50 in assay [1] is 1770 nM and 2670 nM; in assay [2] it was 58.5 nM.
Take `O=c1c2cc(OCCCN3CCCCC3)ccc2nc2n1CCC2`: the IC50 in assay [1] came to 122000 nM; in assay [2], 69.2 nM; in assay [3], 1100 nM.
For the compound `O=c1c2cc(OCCCN3CCc4ccccc4C3)ccc2nc2n1Cc1ccccc1-2`, the results for the IC50 in assay [1] and in assay [2] were 1730 nM and 227 nM, respectively.
`O=c1c2cc(OCCCN3CCCC3)ccc2nc2n1CCC2`: the IC50 is 10600 nM in assay [1] and 50 nM in assay [2].
Take `O=c1c2cc(OCCCCCCCCCN3CCCCC3)ccc2nc2n1CCC2`: the concentration for half-maximal inhibition (IC50) in assay [1] came out at 8600 nM; in assay [2], 390 nM.
For `O=c1c2cc(OCCCN3CCCC3)ccc2nc2n1CCCCC2` the same measures were 12200 nM and 295 nM.
For `O=c1c2cc(OCCCn3ccnc3)ccc2nc2n1CCCCC2`, in that order: 59800 nM and 3950 nM.
As for `CCN(CC)CCCOc1ccc2nc3n(c(=O)c2c1)CCCc1ccccc1-3`, the IC50 in assay [1] stood at 5100 nM; in assay [2], 72.1 nM; in assay [3], 4200 nM.
`O=c1c2cc(OCCCN3CCCCCC3)ccc2nc2n1CCCc1ccccc1-2`: the concentration for half-maximal inhibition (IC50) in assay [1] was 865 nM; in assay [2], 53.4 nM.
For `O=c1c2cc(OCCCN3CCCCC3)ccc2nc2n1CCCc1ccccc1-2`, the results for the IC50 in assay [1], in assay [2] and in assay [3] were 2670 nM, 57.1 nM and 535 nM, respectively.
Consider `O=c1c2cc(OCCCN3CCc4ccccc4C3)ccc2nc2n1CCCC2`, for which the IC50 in assay [1] stood at 5490 nM; in assay [2], 723 nM.
For `O=c1c2cc(OCCCN3CCc4ccccc4C3)ccc2nc2n1CCCCC2` the same measures were 3030 nM and 653 nM.
Consider `O=c1c2cc(OCCCn3ccnc3)ccc2nc2n1CCCc1ccccc1-2`, for which the IC50 was found to be 52000 nM in assay [1], 10300 nM in assay [2] and 56500 nM in assay [3].
Regarding `O=c1c2cc(OCCCN3CCCCC3)ccc2nc2n1CCCC2`, the figures for the IC50 in assay [1], in assay [2] and in assay [3] were 6550 nM, 33.3 nM and 225 nM, respectively.
Consider `CCN(CC)CCCOc1ccc2nc3n(c(=O)c2c1)Cc1ccccc1-3`, for which the IC50 in assay [1] was 1880 nM; in assay [2] it was 11 nM; in assay [3], 200 nM.
Turning to `O=c1c2cc(OCCCn3ccnc3)ccc2nc2n1CCCC2`, the IC50 in assay [1] is 50000 nM and 59000 nM; in assay [2], 4240 nM.
With `O=c1c2cc(OCCCN3CCc4ccccc4C3)ccc2nc2n1CCCc1ccccc1-2`, the IC50 in assay [1] is 1840 nM; in assay [2], 1190 nM.
